Assay results: patent EP0076089A2, “Azabicycloalkane derivatives, process for their preparation, and a pharmaceutical composition containing them” (BEECHAM GROUP PLC, priority 1981, dated 1983)
Counter-ions that a name gives are not always drawn.

Tested on: spontaneous climbing behaviour of mice
Experiment: Spontaneous climbing behaviour of mice (method of Martres et al.)
Type: in vivo
Details: 0.2mg/kg subcutaneous, climbs counted over a 10 minute period commencing 3 minutes after administration, percentage change from control group
Procedure: It is believed that this inhibitory effect is mediated by stimulation of presynaptic dopaminergic autoreceptors, i.e. receptors whose stimulation results in inhibition of dopamine synthesis and electrical activity of dopamine neurones. Spontaneous climbing behaviour was assessed by the method of M.P. Martres et al., Brain Research, 1977, 136, 319. This involves the monitoring of the frequency of climbing behaviour of mice in inverted food hoppers over a 10 minute period commencing 3 minutes after subcutaneous administration of compound. A climb is defined as the mouse having all four feet off the ground. Experiments are carried out with a minimum of 5 groups of 10 mice, one group acting as control.

Row | Compound | % Inhibition of Spontaneous Climbing at 0.2mg/kg (hydrobromide, 0.2 mg/kg) [%] | % Inhibition of Spontaneous Climbing at 0.2mg/kg [%]
1 | Oc1cccc(C2CCC3CCC2N3Cc2ccccc2)c1 (racemic) [Compound 13, (±)-(2-Exo)-8-Benzyl-2-(3'-hydroxyphenyl)-8-azabicyclo(3.2.1)octane hydrobromide] | 24 | –
2 | Oc1cccc(C2CCC3CCC2N3Cc2ccccc2)c1 (racemic) [Compound 14, (±)-(2-endo)-8-Benzyl-2-(3'-hydroxyphenyl)-8-azabicyclo(3.2.1)octane hydrobromide] | 38 | –
3 | Oc1cccc(C2CCC3CCC2N3CCc2ccccc2)c1 (racemic) [Compound 20, 2-endo-8-phenethyl-2-(3'-hydroxyphenyl)-8-azabicyclo[3.2.1] octane] | – | 12
4 | CCCN1C2CCC(c3cccc(O)c3)C1CC2 (racemic) [Compound 16, 2-endo-8-n-propyl-2-(3'-hydroxyphenyl)-8-azabicyclo[3.2.7]octane] | – | 49
